Legend:
[1] = target: Mitogen-activated protein kinase kinase kinase kinase 1 (Homo sapiens, UniProt Q92918); assay: HPK1 Lantha Binding Assay (“Lanth”)
Procedure: (§1) Assay Condition:The following assay concentrations and times were used: 2 nM HPK1, 2 nM Eu-Anti-GST Ab, and 15 nM Tracer222, with 60 min incubation time.HPK Lantha Binding Assay:For the binding assay, 4 ul 2X HPK1 and Eu-anti-GST antibody were added to each well of the assay plate using a Multidrop reagent dispenser. The solutions were incubated in a 23 C incubator for 1 h. To each well of the assay plate was added 4 ul 2× Tracer-222 using a Multidrop reagent dispenser. The solutions were again incubated in a 23 C incubator for 1 h. The results of the assay were read using an Envision plate reader with the following parameters:TR_FRET, 340ex/615 and 665em; 100 usec Delay; and 200 usec integration.

[2] = target: T1, Mitogen-activated protein kinase kinase kinase kinase 1 [T165E,S171E] (Homo sapiens, UniProt Q92918, S171E/T165E); assay: HPK1 Lantha Binding Assay (“Lanth”)
T1 construct: gene MAP4K1
Procedure: as §1

T1 sequence (Q92918 whole entry T165E/S171E, looked up): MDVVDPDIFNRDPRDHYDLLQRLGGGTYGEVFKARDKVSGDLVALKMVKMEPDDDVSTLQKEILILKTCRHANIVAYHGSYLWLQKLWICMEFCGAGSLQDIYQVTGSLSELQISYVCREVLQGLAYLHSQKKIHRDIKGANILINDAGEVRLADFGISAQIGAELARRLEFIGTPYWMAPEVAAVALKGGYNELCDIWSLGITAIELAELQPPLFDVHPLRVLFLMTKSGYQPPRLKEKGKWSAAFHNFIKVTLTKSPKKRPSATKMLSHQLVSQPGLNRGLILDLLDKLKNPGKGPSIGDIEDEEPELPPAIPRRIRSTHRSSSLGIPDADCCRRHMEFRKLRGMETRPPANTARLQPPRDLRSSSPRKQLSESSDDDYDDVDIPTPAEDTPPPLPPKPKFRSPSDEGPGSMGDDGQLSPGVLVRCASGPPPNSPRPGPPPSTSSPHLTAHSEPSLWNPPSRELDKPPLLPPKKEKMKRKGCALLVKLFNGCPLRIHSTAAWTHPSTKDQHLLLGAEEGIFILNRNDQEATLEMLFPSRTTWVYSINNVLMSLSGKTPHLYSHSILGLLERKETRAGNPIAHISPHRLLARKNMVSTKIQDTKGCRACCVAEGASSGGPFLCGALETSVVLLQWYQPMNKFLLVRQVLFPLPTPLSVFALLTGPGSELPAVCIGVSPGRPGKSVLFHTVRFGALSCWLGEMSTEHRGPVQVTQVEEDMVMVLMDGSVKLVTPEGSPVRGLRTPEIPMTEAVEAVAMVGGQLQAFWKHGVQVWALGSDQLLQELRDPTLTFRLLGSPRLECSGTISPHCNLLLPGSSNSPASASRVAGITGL
Mitogen-activated protein kinase kinase kinase kinase 1, sequence (Q92918 whole entry): as the sequence (Q92918 whole entry T165E/S171E, looked up) above, with E165T, E171S counted along it

`CCc1ccnc(Nc2cc3cc(-c4cnccc4C)ccc3cn2)c1` [US12378249, Compound 105] was tested, and the Ki [1] was 6 nM.

For `Cc1c(N)cncc1-c1cc2cc(Nc3cc4n(n3)CC(=O)N(CCN3CC(O)C3)CC4)ncc2cc1F` [US12378249, Compound 165], the Ki [2] was 0.013 nM.
